Assay results reported in patent publication US11389440B2, “PIM kinase inhibitors in combination with autophagy inhibitors for treatment of cancers” (UNIVERSITY OF MARYLAND, BALTIMORE COUNTY, priority 2017, dated 2022).

Tests used:
[1] = system: Molm16 cells; experiment: Molm16 cells treated with AZD1208 in combination with autophagy inhibitors (FA values, CI values); format: cell-based; parameters: key: fraction of cells affected by treatment (0–1)
Protocol: (§1) General experimental procedure: 20,000 (EOL1) cells were seeded per well in 96-well plates. […] At 48 hours the MTT metabolism indicative of number of live cells was measured by MTT assay (Promega, Cat: G4000). The resulting values were used to evaluate the Fa (fraction affected) values, which were plugged into the CompuSyn software to calculate the combination indices (CI values) at ED50, ED75, ED90 and ED95 (ED—Effective dose of combination).
These are values of drug dose and effect (fraction of cells affected by the treatment—FA values). The treatment time is 72 hours.
(§2) The data presented in this Table 5 is from an experiment in which Molm16 cells were treated with AZD1208 in combination with verteporfin (AZD1208 μM:verteporfin μM=1:200). These are values of drug dose and effect (fraction of cells affected by the treatment—FA values). The treatment time is 72 hours.
as §2, with “6” for “5”, “Bafilomycin A1” for “verteporfin”, “μM:bafilomycin A1 μM=1:1).” for “μM:verteporfin μM=1:200).”, “48” for “72”

[2] = system: acute myeloid leukemia cells (EOL1); experiment: MTT assay of EOL1 cells treated with AZD1208 and chloroquine alone and in combination; CI by CompuSyn; format: cell-based, human; conditions: EOL1, 48 hours, scale 0-1
Protocol: as §1
The data were analyzed using CompuSyn, an algorithm based on the Chao-Talalay method for detecting drug synergy (3).
Table 3. […] CI values were determined using CompuSyn at 50%, 75%, 90%, and 95% growth inhibition (GI) Cell growth was measured using standard 3-(4,5-dimethylthiazol-2-yl)-2,5-diphenyltetrazolium bromide (MTT) assays.

Verteporfin
Effect (FA, fraction of cells affected) ([1]; Verteporfin alone 10 μM, Molm16, 72 hours): 0.08412
Effect (FA, fraction of cells affected) ([1]; Verteporfin alone 20 μM, Molm16, 72 hours): 0.2143

CCN(CC)CCCC(C)Nc1ccnc2cc(Cl)ccc12 (stereo not shown) [chloroquine]
Effect (FA, fraction of cells affected) ([1]; chloroquine alone 10 μM, Molm16, 72 hours): 0.05357
Effect (FA, fraction of cells affected) ([1]; chloroquine alone 20 μM, Molm16, 72 hours): 0.1376
Effect (FA, fraction of cells affected) ([1]; chloroquine alone 40 μM, Molm16, 72 hours): 0.4647

N[C@@H]1CCCN(c2c(/C=C3/SC(=O)NC3=O)cccc2-c2ccccc2)C1 [AZD1208, (5E)-5-[[2-[(3R)-3-aminopiperidin-1-yl]-3-phenylphenyl]methylidene]-1,3-thiazolidine-2,4-dione]
Effect (FA, fraction affected) ([2]; AZD1208 alone 0.05 μM): 0.505
Effect (FA, fraction affected) ([2]; AZD1208 alone 0.1 μM): 0.639
Effect (FA, fraction affected) ([2]; AZD1208 alone 0.25 μM): 0.386
Effect (FA, fraction of cells affected) ([1]; AZD1208 alone 0.00625 μM, Molm16, 48 hours, Table 6): 0.1716
Effect (FA, fraction of cells affected) ([1]; AZD1208 alone 0.0125 μM, Molm16, 48 hours, Table 6): 0.2259
Effect (FA, fraction of cells affected) ([1]; AZD1208 alone 0.0125 μM, Molm16, 72 hours, Table 4): 0.2413
Effect (FA, fraction of cells affected) ([1]; AZD1208 alone 0.025 μM, Molm16, 48 hours, Table 6): 0.3615
Effect (FA, fraction of cells affected) ([1]; AZD1208 alone 0.025 μM, Molm16, 72 hours, Table 4): 0.354
Effect (FA, fraction of cells affected) ([1]; AZD1208 alone 0.05 μM, Molm16, 72 hours, Table 4): 0.5497
Effect (FA, fraction of cells affected) ([1]; AZD1208 alone 0.05 μM, Molm16, 72 hours, Table 5): 0.4847
Effect (FA, fraction of cells affected) ([1]; AZD1208 alone 0.1 μM, Molm16, 72 hours, Table 5): 0.6474

CO/C1=C\C(C)=C\[C@@H](C)[C@@H](O)[C@@H](C)C/C(C)=C/C=C/[C@H](OC)[C@@H]([C@@H](C)[C@@H](O)[C@H](C)[C@@]2(O)C[C@@H](O)[C@H](C)[C@@H](C(C)C)O2)OC1=O [Bafilomycin A1]
Effect (FA, fraction of cells affected) ([1]; Bafilomycin A1 alone 0.00625 μM, Molm16, 48 hours): 0.4744
Effect (FA, fraction of cells affected) ([1]; Bafilomycin A1 alone 0.0125 μM, Molm16, 48 hours): 0.7998
Effect (FA, fraction of cells affected) ([1]; Bafilomycin A1 alone 0.025 μM, Molm16, 48 hours): 0.8279
